The values that follow come from patent publication US3931244A, “Thioureas” (John Wyeth & Brother Limited, priority 1973, dated 1976).

The subject of the experiment is appetite. Put plainly: Anorectic test: length of spaghetti eaten by starved mice during a two hour test period. The class given is in vivo. The note with it: 100 mg/kg per os, dosed one hour before test, overnight-starved male mice, (mean length eaten by control - test)/control × 100. The procedure: The compounds of the invention may be tested for anorectic properties by the following procedure:
Groups of 8 or 10 male mice weighing 22-24 grams are starved overnight, although access to water is not restricted. The animals are dosed with the test drug or vehicle alone (control) one hour before they are placed individually into glass jars. The jars (100 mm diameter × 80 mm high) have lids fitted with a glass tube to accommodate a stick of spaghetti of approximate length of 450 mm. The glass tube is arranged such that only 5 mm of spaghetti is exposed for eating by the mouse. The length of spaghetti eaten during a two hour test period is indicative of the appetite of the animal.
When tested by this procedure at a dose of 100 mg/kg per os the following results were obtained: […]
Take `Cc1cccc(C(=O)NC(=S)N[C@@H](C)Cc2ccccc2)c1` [Example 7, N-(3-Toluoyl)-N'-(1-methyl-2-phenyl)ethylthiourea]: the “% Inhibition of appetite” value is reported as 53%.
For `C[C@@H](Cc1ccccc1)NC(=S)NC(=O)c1ccccc1` [Example 1, N-Benzoyl-N'-(1-methyl-2-phenyl)ethylthiourea], the “% Inhibition of appetite” value came to 90%.
Consider `COc1ccc(C(=O)NC(=S)N[C@@H](C)Cc2ccccc2)cc1` [Example 3, N-(4-Methoxybenzoyl)-N'-(1-methyl-2-phenyl)ethylthiourea], for which the “% Inhibition of appetite” value is listed as 52%.
Under `C[C@@H](Cc1ccccc1)NC(=S)NC(=O)c1ccco1` [Example 6] stands 40%; under `C[C@@H](Cc1ccccc1)NC(=S)NC(=O)c1ccc(Cl)cc1` [Example 5, N-(4-Chlorobenzoyl)-N'-(1-methyl-2-phenyl)ethylthiourea], 41%; under `O=C(NC(=S)NCCc1ccccc1)c1ccccc1` [Example 2, N-Benzoyl-N'-phenthylthiourea], 49%.
For `C[C@@H](Cc1ccccc1)NC(=S)NC(=O)c1cccc(C(F)(F)F)c1` [Example 4, N-(3-Trifluoromethylbenzoyl)-N'-(1-methyl-2-phenyl)-ethylthiourea], the “% Inhibition of appetite” value was found to be 49%.
